Experimental data as given in patent US7074789B2, “Kinase inhibitors” (Amgen Inc., priority 1999, dated 2006).

How the values were obtained:
Assay type in all cases: biochemical
Itk = target: T1, Itk (Homo sapiens, UniProt Q08881); test: Kinase inhibition assay (33P transfer), Itk; settings: Table 3, class symbols; read-out: Itk-1
T1 construct: Kinases are expressed as either kinase domains or full length constructs; made in house
T1 sequence (Q08881 1-620): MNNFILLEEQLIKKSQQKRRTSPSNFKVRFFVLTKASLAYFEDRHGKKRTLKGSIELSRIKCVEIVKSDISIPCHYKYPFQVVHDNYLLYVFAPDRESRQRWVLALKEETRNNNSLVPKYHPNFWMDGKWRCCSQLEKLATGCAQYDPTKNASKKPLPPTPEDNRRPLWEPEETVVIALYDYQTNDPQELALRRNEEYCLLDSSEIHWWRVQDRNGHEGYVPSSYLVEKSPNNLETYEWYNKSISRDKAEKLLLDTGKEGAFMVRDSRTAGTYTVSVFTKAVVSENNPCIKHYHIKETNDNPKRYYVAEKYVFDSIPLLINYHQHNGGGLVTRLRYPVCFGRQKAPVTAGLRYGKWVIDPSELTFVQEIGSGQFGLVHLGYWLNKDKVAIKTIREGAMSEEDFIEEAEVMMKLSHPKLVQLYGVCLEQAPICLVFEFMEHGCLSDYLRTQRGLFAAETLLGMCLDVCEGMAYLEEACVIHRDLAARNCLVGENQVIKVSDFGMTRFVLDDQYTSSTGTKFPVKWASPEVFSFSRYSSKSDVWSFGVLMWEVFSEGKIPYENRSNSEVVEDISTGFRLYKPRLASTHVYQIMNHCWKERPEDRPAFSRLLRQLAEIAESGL
Outline: (§1)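 Recombinant kinase domains or full-length GST- or His-tagged constructs, from E. coli or baculovirus/High Five cells, sometimes with regulatory polypeptides. Transfer of 33P from ATP to plate-bound poly(Glu,Tyr) 4:1 or poly(Arg,Ser) 3:1 counted by liquid scintillation after phosphoric acid wash; IC50 is the concentration halving incorporation.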

Zap-70 = target: T2, Zap-70 (Homo sapiens, UniProt P43403); test: Kinase inhibition assay (33P transfer), Zap-70; settings: Table 3, class symbols; read-out: Zap-1
T2 construct: Kinases are expressed as either kinase domains or full length constructs; made in house
T2 sequence (P43403 1-619): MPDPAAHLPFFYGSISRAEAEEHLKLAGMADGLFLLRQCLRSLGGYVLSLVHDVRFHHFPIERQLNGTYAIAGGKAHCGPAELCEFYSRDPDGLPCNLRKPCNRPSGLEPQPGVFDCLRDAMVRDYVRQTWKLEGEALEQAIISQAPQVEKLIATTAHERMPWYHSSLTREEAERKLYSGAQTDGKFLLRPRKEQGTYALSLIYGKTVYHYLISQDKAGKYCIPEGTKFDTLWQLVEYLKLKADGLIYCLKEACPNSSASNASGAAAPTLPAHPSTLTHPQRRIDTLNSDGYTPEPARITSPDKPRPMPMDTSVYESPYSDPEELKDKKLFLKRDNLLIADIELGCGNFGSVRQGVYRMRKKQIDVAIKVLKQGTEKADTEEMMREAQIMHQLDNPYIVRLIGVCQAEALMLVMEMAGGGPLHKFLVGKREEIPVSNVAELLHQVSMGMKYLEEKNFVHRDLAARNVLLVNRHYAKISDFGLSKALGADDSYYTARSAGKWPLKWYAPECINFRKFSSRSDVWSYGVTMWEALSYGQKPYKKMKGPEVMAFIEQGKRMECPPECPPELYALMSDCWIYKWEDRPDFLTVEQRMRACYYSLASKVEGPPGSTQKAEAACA
Outline: (§2)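 Each kinase, expressed as a GST- or polyHis-tagged domain or full-length protein, phosphorylated plate-attached poly(Glu,Tyr) 4:1 or poly(Arg,Ser) 3:1 using 33P-ATP. Bound radioactivity was measured by scintillation after a 0.5% phosphoric acid wash.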

Lck = target: T3, Lck (Homo sapiens, UniProt P06239); test: Kinase inhibition assay (33P transfer), Lck; settings: Table 3, class symbols; read-out: Lck-1
T3 construct: Kinases are expressed as either kinase domains or full length constructs; made in house
Outline: as §2

ErbB2 = target: T4, ErbB2 (Homo sapiens, UniProt P04626); test: Kinase inhibition assay (33P transfer), ErbB2; settings: read-out: ErbB2-2
T4 construct: Kinases are expressed as either kinase domains or full length constructs; made in house
Outline: as §1

AKT = target: T5, AKT (Homo sapiens, UniProt Q9Y243); test: Kinase inhibition assay (33P transfer), AKT; settings: Table 2, class symbols A-E; read-out: AKT3-1
T5 construct: Kinases are expressed as either kinase domains or full length constructs; made in house
Outline: as §2

EGFR = target: T6, EGFR (Homo sapiens, UniProt P00533); test: Kinase inhibition assay (33P transfer), EGFR; settings: Table 2, class symbols A-E; read-out: EGFR-1
T6 construct: Kinases are expressed as either kinase domains or full length constructs; made in house
Outline: as §1

Kdr = target: T7, Kdr (Homo sapiens, UniProt P35968); test: Kinase inhibition assay (33P transfer), Kdr; settings: Table 3, class symbols; read-out: KDR-1
T7 construct: Kinases are expressed as either kinase domains or full length constructs; made in house
Outline: as §2

PDGFRB = target: T8, PDGFRB (Homo sapiens, UniProt P09619); test: Kinase inhibition assay (33P transfer), PDGFRB; settings: read-out: PDGFRB-1
T8 construct: Kinases are expressed as either kinase domains or full length constructs; made in house

IGFR-1 = target: T9, IGFR-1 (Homo sapiens, UniProt P08069); test: Kinase inhibition assay (33P transfer), IGFR-1; settings: Table 2, class symbols A-E
T9 construct: Kinases are expressed as either kinase domains or full length constructs; made in house

c-Met = target: T10, c-Met (Homo sapiens, UniProt P08581); test: Kinase inhibition assay (33P transfer), c-Met; settings: Table 2, class symbols A-E; read-out: Met-1
T10 construct: Kinases are expressed as either kinase domains or full length constructs; made in house
Outline: as §1

T4 sequence (P04626 23-1255, species assumed): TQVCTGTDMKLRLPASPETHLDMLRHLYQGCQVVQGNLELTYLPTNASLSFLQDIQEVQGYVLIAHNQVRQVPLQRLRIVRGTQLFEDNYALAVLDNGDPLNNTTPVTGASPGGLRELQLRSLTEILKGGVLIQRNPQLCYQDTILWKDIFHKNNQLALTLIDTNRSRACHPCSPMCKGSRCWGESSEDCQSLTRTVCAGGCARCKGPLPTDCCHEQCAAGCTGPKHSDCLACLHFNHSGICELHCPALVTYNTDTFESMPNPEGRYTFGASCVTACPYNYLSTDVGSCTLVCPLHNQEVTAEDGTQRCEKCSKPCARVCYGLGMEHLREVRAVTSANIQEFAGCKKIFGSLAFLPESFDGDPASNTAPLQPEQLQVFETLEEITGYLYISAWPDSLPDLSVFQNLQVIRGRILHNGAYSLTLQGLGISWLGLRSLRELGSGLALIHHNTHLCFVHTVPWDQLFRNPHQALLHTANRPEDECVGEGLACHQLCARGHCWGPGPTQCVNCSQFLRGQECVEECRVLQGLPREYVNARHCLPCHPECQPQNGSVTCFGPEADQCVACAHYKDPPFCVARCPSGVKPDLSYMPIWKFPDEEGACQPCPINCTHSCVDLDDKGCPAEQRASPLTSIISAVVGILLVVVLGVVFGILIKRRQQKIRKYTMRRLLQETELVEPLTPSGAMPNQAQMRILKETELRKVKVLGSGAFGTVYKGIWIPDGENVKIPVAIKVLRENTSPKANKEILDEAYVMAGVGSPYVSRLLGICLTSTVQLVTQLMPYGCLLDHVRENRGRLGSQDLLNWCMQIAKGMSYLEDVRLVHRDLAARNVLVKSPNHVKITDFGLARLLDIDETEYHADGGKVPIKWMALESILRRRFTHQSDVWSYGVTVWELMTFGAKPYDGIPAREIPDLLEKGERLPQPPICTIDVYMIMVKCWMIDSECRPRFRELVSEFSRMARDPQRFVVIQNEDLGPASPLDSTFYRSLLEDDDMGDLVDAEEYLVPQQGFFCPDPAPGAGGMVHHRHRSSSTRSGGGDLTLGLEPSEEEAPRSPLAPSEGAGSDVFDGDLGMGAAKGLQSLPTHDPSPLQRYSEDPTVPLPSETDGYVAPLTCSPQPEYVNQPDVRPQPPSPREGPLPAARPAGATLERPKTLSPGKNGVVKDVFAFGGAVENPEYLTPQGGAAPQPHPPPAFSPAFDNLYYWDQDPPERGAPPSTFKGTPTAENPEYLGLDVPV
T7 sequence (P35968 20-1356, species assumed): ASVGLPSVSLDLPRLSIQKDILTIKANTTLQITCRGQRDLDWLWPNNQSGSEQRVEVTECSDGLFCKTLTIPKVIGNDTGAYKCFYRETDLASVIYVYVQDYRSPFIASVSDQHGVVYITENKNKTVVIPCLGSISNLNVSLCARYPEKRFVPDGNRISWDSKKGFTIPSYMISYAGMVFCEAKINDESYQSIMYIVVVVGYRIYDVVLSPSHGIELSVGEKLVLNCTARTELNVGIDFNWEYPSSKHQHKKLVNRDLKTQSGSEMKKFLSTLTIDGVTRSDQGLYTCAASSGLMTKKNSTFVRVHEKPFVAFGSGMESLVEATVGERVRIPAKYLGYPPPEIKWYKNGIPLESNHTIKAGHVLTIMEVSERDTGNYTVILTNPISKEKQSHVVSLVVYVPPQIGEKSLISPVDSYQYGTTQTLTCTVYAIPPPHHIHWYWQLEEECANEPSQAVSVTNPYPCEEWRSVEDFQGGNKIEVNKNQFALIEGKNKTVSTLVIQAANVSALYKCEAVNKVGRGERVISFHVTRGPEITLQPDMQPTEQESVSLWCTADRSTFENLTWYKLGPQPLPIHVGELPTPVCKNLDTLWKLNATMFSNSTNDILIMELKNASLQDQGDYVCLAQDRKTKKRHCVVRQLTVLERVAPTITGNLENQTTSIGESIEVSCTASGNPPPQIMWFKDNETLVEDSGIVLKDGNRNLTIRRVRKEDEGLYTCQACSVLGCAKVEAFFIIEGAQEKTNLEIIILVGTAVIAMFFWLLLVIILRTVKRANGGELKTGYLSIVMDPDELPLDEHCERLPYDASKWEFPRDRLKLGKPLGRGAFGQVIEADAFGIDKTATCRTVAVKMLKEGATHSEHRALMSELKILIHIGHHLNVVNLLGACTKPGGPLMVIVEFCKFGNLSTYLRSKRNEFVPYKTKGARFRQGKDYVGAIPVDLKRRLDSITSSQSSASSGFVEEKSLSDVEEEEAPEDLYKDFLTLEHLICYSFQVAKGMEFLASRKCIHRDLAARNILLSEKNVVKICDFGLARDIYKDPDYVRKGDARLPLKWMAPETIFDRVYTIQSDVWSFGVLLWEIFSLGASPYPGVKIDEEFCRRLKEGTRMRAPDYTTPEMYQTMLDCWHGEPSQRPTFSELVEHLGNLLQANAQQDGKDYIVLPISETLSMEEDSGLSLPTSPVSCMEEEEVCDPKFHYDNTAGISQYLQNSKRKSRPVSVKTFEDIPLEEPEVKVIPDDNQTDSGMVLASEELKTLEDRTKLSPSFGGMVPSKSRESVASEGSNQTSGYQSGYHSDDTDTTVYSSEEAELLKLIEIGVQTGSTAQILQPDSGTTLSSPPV
T3 sequence (P06239 whole entry, species assumed, the tested form may be a part): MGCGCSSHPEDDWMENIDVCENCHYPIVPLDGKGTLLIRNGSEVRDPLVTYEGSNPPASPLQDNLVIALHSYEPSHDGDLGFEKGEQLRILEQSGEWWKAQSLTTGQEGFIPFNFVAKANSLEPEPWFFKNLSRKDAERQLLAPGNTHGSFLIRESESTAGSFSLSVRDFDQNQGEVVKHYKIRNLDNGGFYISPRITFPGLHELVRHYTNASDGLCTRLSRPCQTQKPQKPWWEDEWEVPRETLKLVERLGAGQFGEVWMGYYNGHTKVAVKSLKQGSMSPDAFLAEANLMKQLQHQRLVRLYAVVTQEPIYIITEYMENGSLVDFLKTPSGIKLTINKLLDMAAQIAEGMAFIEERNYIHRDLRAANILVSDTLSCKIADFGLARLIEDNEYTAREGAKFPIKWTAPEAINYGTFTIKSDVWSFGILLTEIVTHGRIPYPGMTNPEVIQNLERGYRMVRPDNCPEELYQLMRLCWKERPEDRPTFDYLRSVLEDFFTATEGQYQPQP
T6 sequence (P00533 25-1210, species assumed): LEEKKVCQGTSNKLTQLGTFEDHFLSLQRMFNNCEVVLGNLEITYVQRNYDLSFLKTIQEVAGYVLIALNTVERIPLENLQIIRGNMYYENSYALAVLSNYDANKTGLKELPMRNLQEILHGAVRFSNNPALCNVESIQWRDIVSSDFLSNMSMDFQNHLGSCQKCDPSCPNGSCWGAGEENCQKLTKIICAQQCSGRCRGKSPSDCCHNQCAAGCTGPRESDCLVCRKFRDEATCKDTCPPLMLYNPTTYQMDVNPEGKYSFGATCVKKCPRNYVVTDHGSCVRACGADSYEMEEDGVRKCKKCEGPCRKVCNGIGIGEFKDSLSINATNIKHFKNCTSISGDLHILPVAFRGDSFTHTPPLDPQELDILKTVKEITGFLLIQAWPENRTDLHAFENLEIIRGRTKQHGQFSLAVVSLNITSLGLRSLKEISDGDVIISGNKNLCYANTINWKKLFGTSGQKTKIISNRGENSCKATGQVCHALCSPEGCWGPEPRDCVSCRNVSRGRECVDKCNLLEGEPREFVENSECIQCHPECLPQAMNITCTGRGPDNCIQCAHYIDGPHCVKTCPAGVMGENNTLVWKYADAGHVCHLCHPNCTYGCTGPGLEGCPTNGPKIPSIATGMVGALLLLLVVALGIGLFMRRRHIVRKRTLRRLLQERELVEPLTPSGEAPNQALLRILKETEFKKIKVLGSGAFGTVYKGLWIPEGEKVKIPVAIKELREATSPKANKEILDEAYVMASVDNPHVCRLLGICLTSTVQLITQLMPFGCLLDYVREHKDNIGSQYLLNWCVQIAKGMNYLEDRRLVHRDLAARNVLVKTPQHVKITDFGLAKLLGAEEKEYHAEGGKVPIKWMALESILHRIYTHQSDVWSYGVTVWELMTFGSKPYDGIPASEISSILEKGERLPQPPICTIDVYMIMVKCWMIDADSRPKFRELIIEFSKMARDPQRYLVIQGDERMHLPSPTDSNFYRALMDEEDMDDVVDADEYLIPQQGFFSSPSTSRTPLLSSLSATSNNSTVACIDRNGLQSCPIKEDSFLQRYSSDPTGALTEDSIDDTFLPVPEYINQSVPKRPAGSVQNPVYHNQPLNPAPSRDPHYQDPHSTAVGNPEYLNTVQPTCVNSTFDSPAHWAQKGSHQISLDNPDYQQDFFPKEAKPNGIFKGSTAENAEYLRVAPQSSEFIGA
T5 sequence (Q9Y243 whole entry, the tested form may be a part): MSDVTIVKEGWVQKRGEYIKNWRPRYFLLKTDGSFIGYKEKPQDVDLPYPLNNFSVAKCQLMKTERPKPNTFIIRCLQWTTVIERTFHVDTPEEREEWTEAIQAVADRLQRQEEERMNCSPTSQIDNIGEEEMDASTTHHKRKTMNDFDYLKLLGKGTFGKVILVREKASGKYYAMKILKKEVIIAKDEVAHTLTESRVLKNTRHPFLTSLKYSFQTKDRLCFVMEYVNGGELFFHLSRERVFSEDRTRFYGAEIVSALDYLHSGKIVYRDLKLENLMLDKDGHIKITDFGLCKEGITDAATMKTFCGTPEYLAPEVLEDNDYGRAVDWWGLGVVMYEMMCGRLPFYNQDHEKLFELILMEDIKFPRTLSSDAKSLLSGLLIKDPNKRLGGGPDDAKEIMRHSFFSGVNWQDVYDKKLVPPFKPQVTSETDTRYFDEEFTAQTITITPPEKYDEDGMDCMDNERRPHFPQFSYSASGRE

IC50 (Itk) | IC50 (Zap-70) | IC50 (Lck) | IC50 (ErbB2) | IC50 (AKT) | IC50 (EGFR) | IC50 (Kdr) | IC50 (PDGFRB) | IC50 (IGFR-1) | IC50 (c-Met) | Structure (SMILES)
> 8.85 µM | > 8.85 µM | 0.787 to 4.72 µM | 4.72 to 6.88 µM | 0.787 to 4.72 µM | > 8.85 µM | < 0.787 µM | 0.787 to 4.72 µM | > 8.85 µM | > 8.85 µM | COc1cc(Nc2ncnc(-c3cccnc3NC(C)c3cccc4ccccc34)n2)cc(OC)c1OC (stereo not drawn) [Compound 845]
> 9.56 µM | > 9.56 µM | > 9.56 µM | > 9.56 µM | > 9.56 µM | > 9.56 µM | 0.85 to 5.1 µM | > 9.56 µM | > 9.56 µM | 0.85 to 5.1 µM | COc1cc(Nc2ncnc(-c3cccnc3Nc3ccc4c(c3)CCC4)n2)cc(OC)c1OC [Compound 830]
6.5 to 9.48 µM | > 12.2 µM | > 12.2 µM | 6.5 to 9.48 µM | > 12.2 µM | > 12.2 µM | > 12.2 µM | < 1.08 µM | 9.48 to 12.2 µM | > 12.2 µM | COCCNc1ncnc(Nc2cc(-c3ccc(C(=O)OC)cc3)n[nH]2)n1 [Compound 816]

More lines, now with the values behind:

Structure (SMILES) | IC50 (Itk) | IC50 (Zap-70) | IC50 (Lck) | IC50 (ErbB2) | IC50 (AKT) | IC50 (EGFR) | IC50 (Kdr) | IC50 (PDGFRB) | IC50 (IGFR-1) | IC50 (c-Met)
COc1ccc(CNc2ncnc(Nc3cc(-c4ccco4)[nH]n3)n2)cc1OC [Compound 822] | 1.02 to 6.1 µM | 6.1 to 8.9 µM | > 11.4 µM | 6.1 to 8.9 µM | > 11.4 µM | 1.02 to 6.1 µM | 8.9 to 11.4 µM | 1.02 to 6.1 µM | 1.02 to 6.1 µM | 6.1 to 8.9 µM
COc1ccc(Nc2ncnc(Nc3ccc4c(c3)CCC4)n2)cc1OC [Compound 896] | 6.6 to 9.63 µM | > 12.4 µM | > 12.4 µM | 1.1 to 6.6 µM | 6.6 to 9.63 µM | 1.1 to 6.6 µM | 6.6 to 9.63 µM | < 1.1 µM | 1.1 to 6.6 µM | 1.1 to 6.6 µM
COC(=O)c1ccc(-c2cc(Nc3ncnc(Nc4cc(=O)n(-c5ccccc5)[nH]4)n3)[nH]n2)cc1 [Compound 880] | > 9.59 µM | > 9.59 µM | > 9.59 µM | 5.11 to 7.46 µM | > 9.59 µM | 0.852 to 5.11 µM | 5.11 to 7.46 µM | 0.852 to 5.11 µM | > 9.59 µM | 0.852 to 5.11 µM
COC(=O)c1ccc(-c2cc(Nc3ncnc(NCc4ccccc4F)n3)[nH]n2)cc1 [Compound 814] | > 10.7 µM | > 10.7 µM | > 10.7 µM | > 10.7 µM | > 10.7 µM | > 10.7 µM | > 10.7 µM | 0.954 to 5.72 µM | > 10.7 µM | > 10.7 µM
COc1cc(Nc2ncnc(-c3cccnc3Nc3ccc(C(F)(F)F)cc3)n2)cc(OC)c1OC [Compound 835] | > 9.03 µM | > 9.03 µM | > 9.03 µM | > 9.03 µM | > 9.03 µM | > 9.03 µM | > 9.03 µM | > 9.03 µM | > 9.03 µM | > 9.03 µM
Fc1ccc(CNc2ncccc2-c2ncnc(Nc3ccc4[nH]ncc4c3)n2)cc1 [Compound 1108] | 5.82 to 8.49 µM | 5.82 to 8.49 µM | 5.82 to 8.49 µM | > 10.9 µM | 0.97 to 5.82 µM | 0.97 to 5.82 µM | < 0.97 µM | < 0.97 µM | 5.82 to 8.49 µM | > 10.9 µM
